According to paper PMC9127232, “Wound Healing Properties of Jasione montana Extracts and Their Main Secondary Metabolites” (Frontiers in Pharmacology, 2022):
“And” between values parts separate entries of the source, which are not always exact repeats. Equal values may be shown once. “Also recorded” adds a separate entry of the source.

Assays:
[1] = test system: IL-8 in fibroblast cells (PCS-201-012); test: Cytometric Bead Array, IL-8 secretion; format: cell-based, human; settings: 24 h
Description: The normal human dermal fibroblast cell line (PCS-201-012) was cultured in DMEM blended with 10% fetal bovine serum (FBS), 10 μg/mL streptomycin, and 10 units/mol penicillin. The cells were cultured in 5% CO2 and fully humidified at 37°C. All tested compounds were dissolved at a final vehicle (DMSO) concentration of not more than 0.5% (v/v). Cells cultured in drug-free DMEM were used as controls, and cells treated with DMSO alone were used as solvent controls. All extracts (JM1–JM6) and the main components of the tested extracts (9, 12, and 22) were analyzed at the following concentrations: 10, 25, 50, 100, 200, and 300 μg/mL. The effect of the tested extracts and fractions (JM1–JM6) as well as 9, 12, and 22 on cytokine (IL-1β, IL-6 IL-8, IL-10, IL-12p70 and TNF) secretion was determined using the Cytometric Bead Array (CBA) Human Inflammatory Cytokine Kit according to the manufacturer’s protocols. After 24 h of incubation with the test samples at concentrations of 10, 25, 50, 100, 200, and 300 μg/mL, fibroblast cells were washed with PBS, trypsinized, resuspended in DMEM and centrifuged (1,200 rpm, 10 min, 4°C). The supernatant was then replaced with 50 μL of assay diluent with the addition of 50 μL of assay beads and 50 μL of PE-labeled antibodies (detection reagent) from the human inflammatory cytokine kit. Incubation was performed for 3 h at room temperature without daylight, after which the fibroblast cells were washed and centrifuged (1,200 rpm, 5 min, 4°C). The cell pellet was resuspended in 300 μL of wash buffer and then immediately subjected to analysis by FCAP Array v3 software on a BD FACSCanto II flow cytometer (both from BD Biosciences Systems, San Jose, CA, United States) calibrated with BD Cytometer Setup and Tracking beads (BD Biosciences, San Diego, CA, United States).

[2] = Ferric reducing antioxidant potential (FRAP); settings: for FRAP: 1 h at 37°C, 594 nm
Description: Determination of the ferric reducing antioxidant potential (FRAP) was performed using a ferric reducing antioxidant power assay kit. Ten microliters of each sample (JM1–JM6, 9, 12, 22) was mixed with 190 µL of supplied reaction mix (FRAP assay buffer, FeCl3 solution, FRAP probe). The absorbance was measured after 1 h of incubation at 37°C at 594 nm using a microplate reader. A blank solution contained 10 µL of MeOH instead of extract/compound solution. For further calculations, the ferrous standard curve was evaluated. The values are given as mM ferrous equivalents. All tests were executed in triplicate.

[3] = biological target: porcine pancreatic elastase (Sus scrofa, UniProt P00772); test: Elastase inhibitory activity; format: biochemical; settings: for anti-elastase activity (in words): extracts 100–600 μg/mL, compounds 10–200 μg/mL
Description: The measurement of elastase inhibition was modified slightly according to a previous method ([Wittenauer et al., 2015]). The procedure was performed in 100 mM Tris buffer (pH = 8.0). Briefly, 100 µL of extracts (JM1–JM6) (100–600 μg/mL) or compounds (9, 12, and 22) (10–200 μg/mL) and 100 µL of Tris buffer were mixed with 25 µL of porcine pancreatic elastase solution (0.05 mg/mL). Then, the mixtures were preincubated at 25°C for 5 min, and 70 µL of AAAPVN (0.4 mg/mL) was added. After another 15 min of incubation, the release of p-nitroaniline was monitored at 410 nm using a microplate reader. A blank solution was prepared by using buffer instead of sample solution. […] The calculations were performed as follows: ElInh(% )=(C-S)/C×100% where C is the negative control and S is the sample.

[4] = DPPH radical-scavenging assay; settings: for DPPH, IC50: 30 min, absorbance 517 nm, mean ± SD; for antiradical potential in the DPPH method compared with Trolox: vs positive control Trolox IC50 58.6 ± 0.1 μg/mL
Description: All extracts (JM1–JM6) and main components of the tested extracts (9, 12, and 22) were isolated and identified as previously described ([Juszczak et al., 2021]). A total of 130 μL of sample solution at various concentrations was mixed with 70 μL of DPPH (0.2 mg/mL) in a 96-well plate. Then, the reaction mixture was incubated in the dark at room temperature. After 30 min, the absorbance was recorded at 517 nm using a microplate reader (BioTek Instruments microplate spectrophotometer EPOCH 2, Oxfordshire, United Kingdom). A blank solution was prepared by mixing methanol and DPPH solution. Trolox was used as a positive control. The experiment was performed in triplicate. RSA(%)=(C-S)/C×100% where C is the negative control and S is the sample. Concentration of the tested samples, which scavenges 50% of free radicals present in the solution (IC50), was calculated.

[5] = test system: normal human dermal fibroblast cell line (PCS-201-012); test: Scratch proliferation and migration assay; format: cell-based; settings: 24 h; for cell migration into the injured area: up to 100 μg/mL
Description: The normal human dermal fibroblast cell line (PCS-201-012) was cultured in DMEM blended with 10% fetal bovine serum (FBS), 10 μg/mL streptomycin, and 10 units/mol penicillin. The cells were cultured in 5% CO2 and fully humidified at 37°C. All tested compounds were dissolved at a final vehicle (DMSO) concentration of not more than 0.5% (v/v). Cells cultured in drug-free DMEM were used as controls, and cells treated with DMSO alone were used as solvent controls. All extracts (JM1-JM6) and the main components of the tested extracts (9, 12, and 22) were analyzed at the following concentrations: 10, 25, 50, 100, 200, and 300 μg/mL. The in vitro wound healing activity of J. montana extracts and isolated compounds was determined by a scratch assay, which is a model of a wound in which monolayer skin cells, including fibroblasts, react to the disruption of contact between cells and stimulate proliferation and migration by modulating the concentration of growth factors and cytokines at the edge wounds ([Liang et al., 2007]). For this purpose, fibroblast cells were seeded at a density of 2.5 × 10^5 in 6-well cell culture dishes and incubated for 24 h at 37°C. After incubation, a linear scratch was made with a universal sterile 200 μL pipette tip. Cells were incubated with the tested extracts (JM1-JM6) and compounds (9, 12, and 22) at concentrations of 10, 25, 50, 100, 200 and 300 μg/mL for 24 h at 37°C. Allantoin, a plant-derived commercialized drug, was used as the positive control at a concentration of 50 μg/mL to judge the rate of cell migration ([[…] et al., 2020]). After incubation, the migrated cells were washed twice with PBS and observed under a phase contrast microscope. The progress of migration, proliferation and closing of the wound before and after treatment with the tested samples was monitored by imaging with a phase contrast microscope (Nikon Eclipse Ti, Tokyo, Japan) at × 100 magnification and NIS-Elements 3.0 imaging software (Nikon Instruments Inc., Melville, NY, United States).

porcine pancreatic elastase, sequence (P00772 27-266): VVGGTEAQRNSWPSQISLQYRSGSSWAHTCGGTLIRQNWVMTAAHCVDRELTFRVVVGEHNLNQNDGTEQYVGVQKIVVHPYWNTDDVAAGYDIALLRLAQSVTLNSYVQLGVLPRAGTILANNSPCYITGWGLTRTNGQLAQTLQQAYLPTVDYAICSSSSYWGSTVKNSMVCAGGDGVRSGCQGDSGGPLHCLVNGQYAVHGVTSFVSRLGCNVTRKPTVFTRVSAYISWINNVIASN

Row | SMILES | IL-8 levels (in words) ([1]; 100–300 μg/mL) | FRAP / reducing power [2] [mM Fe^2+/mL] | FRAP [2] [mM Fe^2+eq/mL] | anti-elastase activity (in words) [3] | DPPH, IC50 [4] | antiradical potential in the DPPH method compared with Trolox [4] | cell migration into the injured area [5] | IL-8 level ([1]; 300 μg/mL, control 8,396.8 ± 2,771.1 pg/mL) [pg/mL] | IL-8 expression (in words) ([1]; 10–300 μg/mL) | IC50 ([3]; Tris buffer pH 8.0, substrate AAAPVN, 410 nm) [µM] | stimulation of fibroblast migration ([5]; only at 10 μg/mL) | IL-8 levels (in words) ([1]; 10–100 μg/mL) | effectiveness in the scratch test ([5]; 50 μg/mL, comparable with allantoin 50 μg/mL)
1 | O=c1cc(-c2ccc(O)c(O)c2)oc2cc(O[C@@H]3O[C@H](CO)[C@@H](O)[C@H](O)[C@H]3O)cc(O)c12 [Compound 12, luteolin 7-O-β-D-glucoside] | reduced IL-8 levels | 51.9 ± 0.5 | 51.88 ± 0.53 | no significant inhibitory activity; also recorded: not active | 16.6 ± 0.7 µg/mL and 16.59 ± 0.7 µg/mL | stronger antiradical potential | significantly increased |  |  |  |  |  | 
2 | O=c1cc(-c2ccc(O)c(O)c2)oc2cc(O)cc(O)c12 [Compound 22, 5,7,3',4'-tetrahydroxyflavone] |  | 60.59 ± 0.5 | 51.81 ± 0.78 |  | 10.6 ± 0.7 µg/mL and 10.65 ± 0.7 µg/mL | stronger antiradical potential |  | 60.8 ± 8 | decrease in its expression was most pronounced | 139 | capable of stimulating cells only at a low concentration |  | 
3 | O=c1cc(-c2ccc(O)c(O)c2)oc2cc(O[C@@H]3O[C@H](CO)[C@@H](O)[C@H](O)[C@H]3O[C@@H]3OC[C@@H](O)[C@H](O)[C@H]3O)cc(O)c12 [Compound 9, luteolin 7-O-β-D-xylosyl-(1-2)-β-D-glucoside] | reduced IL-8 levels |  | 60.59 ± 0.46 | no significant inhibitory activity; also recorded: not active | 20.34 ± 0.8 µg/mL | stronger antiradical potential | significantly increased |  |  |  |  | significant increase | most effective
